From patent publication US4758518A, “D-2-haloalkanoic acid halidohydrolase” (Imperial Chemical Industries PLC, priority 1984, dated 1988)

Target: T1, D-2-HAA halidohydrolase from Pseudomonas putida NCIB 12018 (0.15 M fraction) (Pseudomonas putida, UniProt Q52086)
T1 construct: Activity towards D-2-CPA was found exclusively in the 0.15 M fraction; endogenous in cells; host or cells: Pseudomonas putida NCIB 12018 (cell-free extract from French pressure cell, fractionated on DEAE-Sephacel, 0.15 M KCl fraction)
T1 sequence (Q52086 whole entry): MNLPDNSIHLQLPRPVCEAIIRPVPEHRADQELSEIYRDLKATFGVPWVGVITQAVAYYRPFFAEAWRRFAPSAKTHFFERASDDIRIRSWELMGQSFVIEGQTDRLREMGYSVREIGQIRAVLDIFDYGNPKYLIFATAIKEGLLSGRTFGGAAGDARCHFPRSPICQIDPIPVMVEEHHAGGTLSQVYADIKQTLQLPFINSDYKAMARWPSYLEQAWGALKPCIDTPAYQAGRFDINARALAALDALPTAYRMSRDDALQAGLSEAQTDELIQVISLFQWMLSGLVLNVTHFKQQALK
Experiment: Inhibition of dehalogenation activity of the isolated D-2-HAA halidohydrolase (0.15 M DEAE-Sephacel fraction)
Assay type: biochemical
Settings: at up to 1 M concentration of the substance; substrate (DL-2-CPA) or reaction product (lactate)
Description: Samples of the cell-free extracts were submitted in duplicate to polyacrylamide gel electrophoresis (Hardman et al, Journal of General Microbiology, 1981, Volume 123, pages 117-128). One of each pair of gels, after electrophoresis was incubated in a buffer solution containing 50 mM D-2-CPA and the other of each pair was incubated in a buffer solution containing 50 mM L-2-CPA as described in the aforesaid Hardman et al reference.
A portion (25 ml) of the cell free extract from Pseudomonas putida NCIB 12018 was loaded onto DEAE-Sephacel column (45 mm diameter, 60 cm high) pre-equilibrated with 25 mM Tris/Sulphate buffer at pH 7.5. The column was eluted with portions (200 ml) of this buffer neat and then containing successively 0.15 M, 0.2 M and 0.5 M potassium chloride at a flow rate of 100 ml/hour.
Each of the four fractions was assayed for halidohydrolase activity as described in Step 2 using L-2-CPA and D-2-CPA as substrates.
The halidohydrolase in the 0.15 M fraction has a pH optimum for activity on D-2-CPA at 8.8-9.0. It has good activity in organic (Tris/Sulphate) and inorganic (bicarbonate/carbonate) buffers, and has activity in unbuffered media, e.g. distilled water, with the pH controlled at 8.8-9.0.
The enzymatic activity is not inhibited by up to 1 M DL-2-CPA or by the products of the reaction, i.e. chloride ion and lactate, at up to 1 M concentration.

SMILES	inhibition of the enzymatic activity
CC(Cl)C(=O)O (racemic) [DL-2-CPA, 2-chloropropionic acid]	not inhibited
CC(O)C(=O)O (centres unmarked) [lactate]	not inhibited
